Measurements reported in the kinase profiling compilation of Christmann-Franck et al. (2016).

How the values were obtained:
Experiment in all cases: radiometric filter-binding kinase assay, Kinase HotSpot
Conditions in all cases: compound 0.5 µM; ATP 10 µM
ABL1 (human) = ABL1 (human) (UniProt P00519)
ADRBK2 (human) = ADRBK2 (human) (UniProt P35626)
CAMK2D (human) = CAMK2D (human) (UniProt Q13557)
CLK1 (human) = CLK1 (human) (UniProt P49759)
CLK3 (human) = CLK3 (human) (UniProt P49761)
EPHA8 (human) = EPHA8 (human) (UniProt P29322)
EPHB1 (human) = EPHB1 (human) (UniProt P54762)
EPHB2 (human) = EPHB2 (human) (UniProt P29323)
ERBB2 (human) = ERBB2 (human) (UniProt P04626)
GRK5 (human) = GRK5 (human) (UniProt P34947)
GRK7 (human) = GRK7 (human) (UniProt Q8WTQ7)
INSRR (human) = INSRR (human) (UniProt P14616)
ITK (human) = ITK (human) (UniProt Q08881)
LCK (human) = LCK (human) (UniProt P06239)
LTK (human) = LTK (human) (UniProt P29376)
MAP2K1 (human) = MAP2K1 (human) (UniProt Q02750)
MAPKAPK5 (human) = MAPKAPK5 (human) (UniProt Q8IW41)
MARK1 (human) = MARK1 (human) (UniProt Q9P0L2)
MST1R (human) = MST1R (human) (UniProt Q04912)
NEK11 (human) = NEK11 (human) (UniProt Q8NG66)
NEK3 (human) = NEK3 (human) (UniProt P51956)
NEK7 (human) = NEK7 (human) (UniProt Q8TDX7)
NTRK1 (human) = NTRK1 (human) (UniProt P04629)
PAK4 (human) = PAK4 (human) (UniProt O96013)
PASK (human) = PASK (human) (UniProt Q96RG2)
PDPK1 (human) = PDPK1 (human) (UniProt O15530)
PHKG1 (human) = PHKG1 (human) (UniProt Q16816)
PLK2 (human) = PLK2 (human) (UniProt Q9NYY3)
PRKCB2 (human) = PRKCB2 (human) (UniProt P05771)
PRKD1 (human) = PRKD1 (human) (UniProt Q15139)
PRKD2 (human) = PRKD2 (human) (UniProt Q9BZL6)
PRKX (human) = PRKX (human) (UniProt P51817)
ROCK2 (human) = ROCK2 (human) (UniProt O75116)
RPS6KA3 KD1 KD2 (human) = RPS6KA3 KD1 KD2 (human) (UniProt P51812)
RPS6KB1 (human) = RPS6KB1 (human) (UniProt P23443)
SGK3 (human) = SGK3 (human) (UniProt Q96BR1)
SRPK3 (human) = SRPK3 (human) (UniProt Q9UPE1)
STK4 (human) = STK4 (human) (UniProt Q13043)
TAOK1 (human) = TAOK1 (human) (UniProt Q7L7X3)
TEK (human) = TEK (human) (UniProt Q02763)
TTK (human) = TTK (human) (UniProt P33981)
TYRO3 (human) = TYRO3 (human) (UniProt Q06418)

LCK (human), sequence (P06239 whole entry, looked up): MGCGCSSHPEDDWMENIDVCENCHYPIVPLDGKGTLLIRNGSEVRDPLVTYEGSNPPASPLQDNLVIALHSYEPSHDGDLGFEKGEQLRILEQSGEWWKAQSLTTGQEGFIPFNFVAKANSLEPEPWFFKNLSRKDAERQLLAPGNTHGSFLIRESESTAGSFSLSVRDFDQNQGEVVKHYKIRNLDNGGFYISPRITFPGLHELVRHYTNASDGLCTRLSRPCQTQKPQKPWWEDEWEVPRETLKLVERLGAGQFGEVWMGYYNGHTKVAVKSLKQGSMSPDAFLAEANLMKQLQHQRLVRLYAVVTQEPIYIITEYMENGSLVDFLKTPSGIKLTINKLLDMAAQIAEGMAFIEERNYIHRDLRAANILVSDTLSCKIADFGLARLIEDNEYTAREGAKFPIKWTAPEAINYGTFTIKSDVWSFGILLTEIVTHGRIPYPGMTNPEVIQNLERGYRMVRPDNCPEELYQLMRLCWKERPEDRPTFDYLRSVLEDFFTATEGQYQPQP
ROCK2 (human), sequence (O75116 whole entry, looked up): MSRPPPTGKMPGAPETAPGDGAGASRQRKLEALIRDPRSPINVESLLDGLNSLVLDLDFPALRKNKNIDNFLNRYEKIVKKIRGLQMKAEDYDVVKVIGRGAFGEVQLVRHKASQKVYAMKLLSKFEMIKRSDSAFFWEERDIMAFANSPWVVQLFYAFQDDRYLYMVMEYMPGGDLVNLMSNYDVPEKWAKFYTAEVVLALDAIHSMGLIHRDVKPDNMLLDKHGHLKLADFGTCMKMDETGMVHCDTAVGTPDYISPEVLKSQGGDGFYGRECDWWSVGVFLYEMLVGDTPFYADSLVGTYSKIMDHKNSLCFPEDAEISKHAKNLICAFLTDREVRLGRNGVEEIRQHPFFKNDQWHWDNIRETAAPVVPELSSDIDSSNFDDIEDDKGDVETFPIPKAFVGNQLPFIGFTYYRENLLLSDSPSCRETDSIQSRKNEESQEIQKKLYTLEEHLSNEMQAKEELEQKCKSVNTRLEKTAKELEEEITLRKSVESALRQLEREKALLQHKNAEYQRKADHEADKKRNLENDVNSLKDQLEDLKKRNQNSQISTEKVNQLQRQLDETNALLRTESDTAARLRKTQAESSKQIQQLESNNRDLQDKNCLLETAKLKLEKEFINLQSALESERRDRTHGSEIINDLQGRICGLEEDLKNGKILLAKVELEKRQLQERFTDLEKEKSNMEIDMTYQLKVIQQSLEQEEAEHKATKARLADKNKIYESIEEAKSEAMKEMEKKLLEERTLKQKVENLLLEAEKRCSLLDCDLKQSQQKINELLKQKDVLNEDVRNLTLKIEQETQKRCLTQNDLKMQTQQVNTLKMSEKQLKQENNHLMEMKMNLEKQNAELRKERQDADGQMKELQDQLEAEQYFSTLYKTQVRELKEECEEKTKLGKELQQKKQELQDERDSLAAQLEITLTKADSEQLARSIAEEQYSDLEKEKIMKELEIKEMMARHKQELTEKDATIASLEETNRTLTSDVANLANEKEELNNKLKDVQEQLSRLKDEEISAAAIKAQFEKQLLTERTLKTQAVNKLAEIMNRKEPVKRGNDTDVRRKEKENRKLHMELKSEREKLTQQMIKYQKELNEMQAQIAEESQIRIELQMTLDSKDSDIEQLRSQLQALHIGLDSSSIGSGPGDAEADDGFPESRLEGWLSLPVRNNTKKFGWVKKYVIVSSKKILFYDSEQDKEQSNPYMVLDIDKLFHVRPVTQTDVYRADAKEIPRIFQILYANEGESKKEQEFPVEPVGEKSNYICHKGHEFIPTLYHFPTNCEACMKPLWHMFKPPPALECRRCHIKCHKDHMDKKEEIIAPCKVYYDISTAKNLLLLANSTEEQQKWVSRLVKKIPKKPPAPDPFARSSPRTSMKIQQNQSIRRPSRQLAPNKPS
RPS6KA3 KD1 KD2 (human), sequence (P51812 whole entry, looked up): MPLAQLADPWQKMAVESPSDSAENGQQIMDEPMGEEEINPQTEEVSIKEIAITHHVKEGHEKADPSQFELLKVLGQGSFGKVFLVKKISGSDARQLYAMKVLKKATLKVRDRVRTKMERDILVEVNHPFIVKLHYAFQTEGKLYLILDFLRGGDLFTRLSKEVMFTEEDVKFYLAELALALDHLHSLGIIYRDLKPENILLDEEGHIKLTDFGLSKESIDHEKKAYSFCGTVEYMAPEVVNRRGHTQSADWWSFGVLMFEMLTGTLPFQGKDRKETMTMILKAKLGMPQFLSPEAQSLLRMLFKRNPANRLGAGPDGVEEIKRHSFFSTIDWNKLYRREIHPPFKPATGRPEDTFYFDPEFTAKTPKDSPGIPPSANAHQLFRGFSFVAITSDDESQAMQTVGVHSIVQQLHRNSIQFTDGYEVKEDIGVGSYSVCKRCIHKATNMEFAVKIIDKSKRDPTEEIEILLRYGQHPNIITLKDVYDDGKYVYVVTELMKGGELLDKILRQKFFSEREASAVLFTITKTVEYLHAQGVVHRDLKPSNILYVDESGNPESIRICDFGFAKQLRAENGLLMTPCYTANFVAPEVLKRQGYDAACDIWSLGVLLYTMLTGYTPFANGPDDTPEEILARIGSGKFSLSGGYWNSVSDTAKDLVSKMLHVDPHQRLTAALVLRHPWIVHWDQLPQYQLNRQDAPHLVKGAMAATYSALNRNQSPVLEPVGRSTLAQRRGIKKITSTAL
CLK3 (human), sequence (P49761 whole entry, looked up): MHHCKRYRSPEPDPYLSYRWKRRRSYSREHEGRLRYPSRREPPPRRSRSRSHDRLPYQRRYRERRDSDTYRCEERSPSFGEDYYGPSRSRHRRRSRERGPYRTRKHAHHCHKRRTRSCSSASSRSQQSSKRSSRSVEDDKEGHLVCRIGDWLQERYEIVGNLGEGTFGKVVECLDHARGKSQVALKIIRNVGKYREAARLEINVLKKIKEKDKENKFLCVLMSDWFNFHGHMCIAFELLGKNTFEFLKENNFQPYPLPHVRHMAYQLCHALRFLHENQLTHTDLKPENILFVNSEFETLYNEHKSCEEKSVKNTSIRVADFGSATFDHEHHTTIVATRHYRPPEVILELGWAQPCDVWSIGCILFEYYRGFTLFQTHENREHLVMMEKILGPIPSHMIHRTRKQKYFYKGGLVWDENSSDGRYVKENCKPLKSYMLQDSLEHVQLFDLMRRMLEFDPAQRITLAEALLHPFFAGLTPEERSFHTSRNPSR
PRKX (human), sequence (P51817 whole entry, looked up): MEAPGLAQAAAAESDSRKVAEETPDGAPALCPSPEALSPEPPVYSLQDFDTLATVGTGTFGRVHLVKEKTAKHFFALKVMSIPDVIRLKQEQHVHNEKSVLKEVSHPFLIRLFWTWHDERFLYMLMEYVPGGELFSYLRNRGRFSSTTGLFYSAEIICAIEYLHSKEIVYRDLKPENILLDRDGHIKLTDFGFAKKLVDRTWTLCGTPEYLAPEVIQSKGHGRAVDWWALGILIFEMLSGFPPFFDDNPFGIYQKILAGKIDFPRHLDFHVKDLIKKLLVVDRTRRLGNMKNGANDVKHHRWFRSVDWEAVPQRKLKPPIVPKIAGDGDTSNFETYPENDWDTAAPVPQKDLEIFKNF
ADRBK2 (human), sequence (P35626 whole entry, looked up): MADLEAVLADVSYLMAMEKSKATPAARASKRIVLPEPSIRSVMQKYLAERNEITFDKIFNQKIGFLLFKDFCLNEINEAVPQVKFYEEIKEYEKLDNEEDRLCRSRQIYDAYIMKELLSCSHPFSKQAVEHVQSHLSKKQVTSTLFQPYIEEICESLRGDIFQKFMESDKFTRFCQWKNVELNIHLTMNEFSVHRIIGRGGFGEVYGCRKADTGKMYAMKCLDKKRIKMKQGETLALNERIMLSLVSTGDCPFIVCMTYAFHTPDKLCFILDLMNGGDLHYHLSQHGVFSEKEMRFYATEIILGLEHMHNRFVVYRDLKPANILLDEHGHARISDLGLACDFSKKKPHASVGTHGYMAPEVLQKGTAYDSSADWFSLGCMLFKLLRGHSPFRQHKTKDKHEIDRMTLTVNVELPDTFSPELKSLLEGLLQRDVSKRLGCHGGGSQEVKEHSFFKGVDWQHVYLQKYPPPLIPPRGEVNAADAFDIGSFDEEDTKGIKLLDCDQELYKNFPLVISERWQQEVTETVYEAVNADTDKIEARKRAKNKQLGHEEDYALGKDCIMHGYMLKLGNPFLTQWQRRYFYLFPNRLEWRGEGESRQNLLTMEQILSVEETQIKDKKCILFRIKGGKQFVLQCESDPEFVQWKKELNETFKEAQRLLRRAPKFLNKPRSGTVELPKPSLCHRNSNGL
PLK2 (human), sequence (Q9NYY3 whole entry, looked up): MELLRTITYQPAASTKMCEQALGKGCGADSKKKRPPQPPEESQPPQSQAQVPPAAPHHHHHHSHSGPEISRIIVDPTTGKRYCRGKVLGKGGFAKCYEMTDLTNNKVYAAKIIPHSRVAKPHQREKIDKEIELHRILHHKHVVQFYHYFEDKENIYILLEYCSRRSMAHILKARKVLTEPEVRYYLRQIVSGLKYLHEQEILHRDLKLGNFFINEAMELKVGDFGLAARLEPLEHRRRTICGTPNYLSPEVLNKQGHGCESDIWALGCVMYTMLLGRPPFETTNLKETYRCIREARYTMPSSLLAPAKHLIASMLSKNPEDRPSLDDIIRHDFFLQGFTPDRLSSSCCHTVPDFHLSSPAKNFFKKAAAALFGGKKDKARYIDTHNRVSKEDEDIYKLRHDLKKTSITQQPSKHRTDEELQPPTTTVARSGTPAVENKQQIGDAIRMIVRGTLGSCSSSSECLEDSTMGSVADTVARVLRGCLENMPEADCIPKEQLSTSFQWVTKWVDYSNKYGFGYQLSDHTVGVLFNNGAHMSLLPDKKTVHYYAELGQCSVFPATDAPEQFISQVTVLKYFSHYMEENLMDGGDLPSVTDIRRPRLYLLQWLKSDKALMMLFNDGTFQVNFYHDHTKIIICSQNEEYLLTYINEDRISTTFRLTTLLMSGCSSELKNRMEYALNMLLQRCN

With `CCCCc1c(-c2ccc(OC)cc2)[nH]c2nccnc12` the residual activity (ABL1 (human)) was 83.4%, the residual activity (ADRBK2 (human)) was 95.6% and the residual activity (CAMK2D (human)) was 93.3%. For the same compound, the residual activity (CLK1 (human)) was 102%, the residual activity (CLK3 (human)) was 116% and the residual activity (EPHA8 (human)) was 103%. The residual activity (EPHB1 (human)) was 76%, the residual activity (EPHB2 (human)) was 88.8% and the residual activity (ERBB2 (human)) was 96.4%. For the same compound, the residual activity (GRK5 (human)) was 105%, the residual activity (GRK7 (human)) was 94.1% and the residual activity (INSRR (human)) was 83.2%. For the same compound, the residual activity (ITK (human)) was 99.4%, the residual activity (LCK (human)) was 85% and the residual activity (LTK (human)) was 83.9%. For the same compound, the residual activity (MAP2K1 (human)) was 88.7%, the residual activity (MAPKAPK5 (human)) was 95.3% and the residual activity (MARK1 (human)) was 92.9%. The residual activity (MST1R (human)) was 104%, the residual activity (NEK11 (human)) was 93.6% and the residual activity (NEK3 (human)) was 99.1%. The residual activity (NEK7 (human)) was 107%, the residual activity (NTRK1 (human)) was 109% and the residual activity (PAK4 (human)) was 107%. It also gave a residual activity (PASK (human)) of 97.6%, a residual activity (PDPK1 (human)) of 102% and a residual activity (PHKG1 (human)) of 89.4%. For the same compound, the residual activity (PLK2 (human)) was 94.9%, the residual activity (PRKCB2 (human)) was 106% and the residual activity (PRKD1 (human)) was 92.9%. It also gave a residual activity (PRKD2 (human)) of 101%, a residual activity (PRKX (human)) of 102% and a residual activity (ROCK2 (human)) of 97.2%. It also gave a residual activity (RPS6KA3 KD1 KD2 (human)) of 88%, a residual activity (RPS6KB1 (human)) of 108% and a residual activity (SGK3 (human)) of 98.6%. It also gave a residual activity (SRPK3 (human)) of 97.9%, a residual activity (STK4 (human)) of 82.2% and a residual activity (TAOK1 (human)) of 87%. It also gave a residual activity (TEK (human)) of 96.3%, a residual activity (TTK (human)) of 87.9% and a residual activity (TYRO3 (human)) of 98.6%.
`c1ccc2c(-c3ccncc3)c[nH]c2c1` gave a residual activity (ABL1 (human)) of 98.8%, a residual activity (ADRBK2 (human)) of 95.4% and a residual activity (CAMK2D (human)) of 103%. For the same compound, the residual activity (CLK1 (human)) was 105%, the residual activity (CLK3 (human)) was 92.6% and the residual activity (EPHA8 (human)) was 101%. For the same compound, the residual activity (EPHB1 (human)) was 108%, the residual activity (EPHB2 (human)) was 114% and the residual activity (ERBB2 (human)) was 95.6%. For the same compound, the residual activity (GRK5 (human)) was 99.2%, the residual activity (GRK7 (human)) was 98.4% and the residual activity (INSRR (human)) was 101%. For the same compound, the residual activity (ITK (human)) was 94.8%, the residual activity (LCK (human)) was 102% and the residual activity (LTK (human)) was 103%. For the same compound, the residual activity (MAP2K1 (human)) was 96.5%, the residual activity (MAPKAPK5 (human)) was 96.1% and the residual activity (MARK1 (human)) was 94.5%. It also gave a residual activity (MST1R (human)) of 98.9%, a residual activity (NEK11 (human)) of 76.9% and a residual activity (NEK3 (human)) of 91.6%. It also gave a residual activity (NEK7 (human)) of 104%, a residual activity (NTRK1 (human)) of 97% and a residual activity (PAK4 (human)) of 96.7%. It also gave a residual activity (PASK (human)) of 101%, a residual activity (PDPK1 (human)) of 96.6% and a residual activity (PHKG1 (human)) of 90.3%. The residual activity (PLK2 (human)) was 99.9%, the residual activity (PRKCB2 (human)) was 89.5% and the residual activity (PRKD1 (human)) was 95.5%. The residual activity (PRKD2 (human)) was 95.7%, the residual activity (PRKX (human)) was 54.3% and the residual activity (ROCK2 (human)) was 71.9%. For the same compound, the residual activity (RPS6KA3 KD1 KD2 (human)) was 97.4%, the residual activity (RPS6KB1 (human)) was 79.9% and the residual activity (SGK3 (human)) was 92.8%. It also gave a residual activity (SRPK3 (human)) of 96%, a residual activity (STK4 (human)) of 103% and a residual activity (TAOK1 (human)) of 88.4%. It also gave a residual activity (TEK (human)) of 101%, a residual activity (TTK (human)) of 112% and a residual activity (TYRO3 (human)) of 98.1%.
`N#Cc1c[nH]c2c[nH]/c(=N\Cc3cccnc3)cc2/c1=N\c1ccc(F)c(Cl)c1` was tested, and the residual activity (ABL1 (human)) was 93.4%, the residual activity (ADRBK2 (human)) was 100% and the residual activity (CAMK2D (human)) was 103%. For the same compound, the residual activity (CLK1 (human)) was 91%, the residual activity (CLK3 (human)) was 96.7% and the residual activity (EPHA8 (human)) was 91.2%. For the same compound, the residual activity (EPHB1 (human)) was 93.1%, the residual activity (EPHB2 (human)) was 97.4% and the residual activity (ERBB2 (human)) was 91.7%. The residual activity (GRK7 (human)) was 95.5%, the residual activity (INSRR (human)) was 97% and the residual activity (ITK (human)) was 99.1%. It also gave a residual activity (LCK (human)) of 97.3%, a residual activity (LTK (human)) of 95.6% and a residual activity (MAP2K1 (human)) of 86.2%. For the same compound, the residual activity (MAPKAPK5 (human)) was 99.6%, the residual activity (MARK1 (human)) was 91.6% and the residual activity (MST1R (human)) was 89.6%. It also gave a residual activity (NEK11 (human)) of 87.1%, a residual activity (NEK3 (human)) of 56% and a residual activity (NEK7 (human)) of 102%. The residual activity (NTRK1 (human)) was 96.2%, the residual activity (PAK4 (human)) was 85.4% and the residual activity (PASK (human)) was 124%. It also gave a residual activity (PDPK1 (human)) of 85.3%, a residual activity (PHKG1 (human)) of 92% and a residual activity (PLK2 (human)) of 110%. For the same compound, the residual activity (PRKCB2 (human)) was 86.2%, the residual activity (PRKD1 (human)) was 94.5% and the residual activity (PRKD2 (human)) was 99.7%. It also gave a residual activity (PRKX (human)) of 101%, a residual activity (ROCK2 (human)) of 97.1% and a residual activity (RPS6KA3 KD1 KD2 (human)) of 99.1%. The residual activity (RPS6KB1 (human)) was 89.4%, the residual activity (SGK3 (human)) was 91.5% and the residual activity (SRPK3 (human)) was 96.4%. It also gave a residual activity (STK4 (human)) of 100%, a residual activity (TAOK1 (human)) of 89.9% and a residual activity (TEK (human)) of 95.5%. It also gave a residual activity (TTK (human)) of 99.1% and a residual activity (TYRO3 (human)) of 98%.
`Cn1c2ccccc2c2c3c(c4c5ccccc5n(CCC#N)c4c21)CNC3=O` gave a residual activity (ABL1 (human)) of 84.6%, a residual activity (ADRBK2 (human)) of 106% and a residual activity (CAMK2D (human)) of 20.3%. It also gave a residual activity (CLK1 (human)) of 69.9%, a residual activity (CLK3 (human)) of 23.1% and a residual activity (EPHA8 (human)) of 91.7%. It also gave a residual activity (EPHB1 (human)) of 95%, a residual activity (EPHB2 (human)) of 77.7% and a residual activity (ERBB2 (human)) of 107%. The residual activity (GRK5 (human)) was 89.1%, the residual activity (GRK7 (human)) was 37.9% and the residual activity (INSRR (human)) was 82.5%. The residual activity (ITK (human)) was 4.32%, the residual activity (LTK (human)) was 8.79% and the residual activity (MAP2K1 (human)) was 90.2%. It also gave a residual activity (MAPKAPK5 (human)) of 127%, a residual activity (MARK1 (human)) of 20.8% and a residual activity (MST1R (human)) of 111%. For the same compound, the residual activity (NEK11 (human)) was 110%, the residual activity (NEK3 (human)) was 133% and the residual activity (NEK7 (human)) was 97%. It also gave a residual activity (NTRK1 (human)) of 1.64%, a residual activity (PAK4 (human)) of 44% and a residual activity (PASK (human)) of 84.3%. The residual activity (PDPK1 (human)) was 63.2%, the residual activity (PHKG1 (human)) was 1.76% and the residual activity (PLK2 (human)) was 105%. The residual activity (PRKCB2 (human)) was 9.73%, the residual activity (PRKD1 (human)) was 17.3% and the residual activity (PRKD2 (human)) was 18.7%. It also gave a residual activity (PRKX (human)) of 60.1%, a residual activity (ROCK2 (human)) of 48.5% and a residual activity (RPS6KA3 KD1 KD2 (human)) of 5.93%. The residual activity (RPS6KB1 (human)) was 6.71%, the residual activity (SGK3 (human)) was 112% and the residual activity (SRPK3 (human)) was 92.8%. It also gave a residual activity (STK4 (human)) of 3.73%, a residual activity (TAOK1 (human)) of 43.9% and a residual activity (TEK (human)) of 104%. It also gave a residual activity (TTK (human)) of 69% and a residual activity (TYRO3 (human)) of 85.6%.
